Here are results for 1 compound from patent US7078395B1, “Methods for treating or preventing cancer by preventing, inhibiting or arresting cell cycling” (priority 1999, dated 2006).

Molecules are shown by their SMILES.

For test [1], the system named is breast tumour-derived fibroblasts. In words: Morphology and cell number (Coulter counter) of fibroblasts. Format: cell-based. As to conditions: 24 h. The method, then:
For the culture of fibroblasts, resected breast tumour tissue was minced and incubated in EMEM for 18-24 h at 37° C. with collagenase (200 μg/ml). The dispersed cells were harvested by centrifugation and washed twice with medium to remove collagenase. Dispersed cells were seeded into culture flasks and grown to confluence before passaging on a weekly basis. For experimental purposes 12 well multi-well plates or 25 cm^2 flasks were seeded with fibroblasts and grown to 70-80% confluency. Cells were washed with PBS and exposed to drugs for 24 h before determining cell numbers using a Coulter counter.
Photomicrographs of control and treated cells were taken under normal conditions of light and exposure using an Olympus SL35 Type 12 camera under an Olympus CK2 microscope (×100 magnification).

The next test concerns MCF7 cells. The experiment in a line: Proportion of cells in mitosis (PI stained cytospins, confocal microscopy). Type of test: cell-based. Particulars: 24 hours (control 4%). The method, then: To determine the proportion of cells in mitosis, drug treated cells were collected by trypsinisation and cytospins prepared. Cells were fixed in ice cold methanol for 5 minutes, air dried and DNA was stained using propidium iodide (PI) (0.1 mg/ml in phosphate buffered saline (PBS) containing 10% (v/v) newborn calf serum and 0.05% (w/v) sodium azide). Cells were analysed by confocal microscopy using a Zeiss Axiovert 100 M microscope equipped with the LSM 510 confocal system (Zeiss, Jena, Germany).
Effect of estrone derivatives on mitosis in MCF7 cells. MCF7 cells were treated with the indicated compounds for 24 hours. Cells were recovered by trypsinisation and cytospins prepared. DNA was stained with PI and cells in mitosis (i.e., with condensed chromosomes) determined as a percentage of total cells.

For the compound `COc1cc2c(cc1OS(N)(=O)=O)CCC1C2CC[C@]2(C)C(=O)CCC12` (some centres unmarked) [2-MeOEMATE, 2-methoxyoestrone-3-O-sulphamate], the “effect on fibroblast morphology” value is recorded as “little effect on cell morphology” in test [1] (1 μM) and “rounding of a significant proportion of fibroblasts” in test [1] (5 μM). Also, the “effect on the number of fibroblasts” value in test [1] is “did not reduce the number of fibroblasts”. The “mitotic cells, percentage of total cells” value came to 26% in the test with MCF7 cells (500 nM) and 38% in the test on MCF7 cells (5 μM).
